Test results from patent US20250076320A1, “METHOD AND PROGRAM FOR DETECTING ADMINISTERED DRUG, AND DEVICE THEREFOR” (A&T CORPORATION, priority 2023, published 2025).

System: prothrombin time (blood coagulation, extrinsic pathway)
Assay: Clot waveform analysis with dry PT reagent containing magnetic particles on the CG02N blood coagulation analyzer
Details: samples receiving administration of rivaroxaban, PT-INR 2.0 or higher (22 samples); inclination from maximal movement level of magnetic particles to 5% attenuation; 25 μl sample; samples not receiving DOAC: −1219.8
Description: When measurement is initiated, apparatus CG02N turns electromagnets at the bottom of the reaction cell on and off, and allows magnetic particles to move in the reaction cell. CG02N observes the movement of the magnetic particles as the amount of change in the scattered light, and analyzes the change with the elapse of time to determine clotting time. When the CG02N analyzer is used, the change in the movement signal of the magnetic particles over time is inversely correlated to the change in the viscosity of the dry reagent. As the clotting reaction advances, the viscosity in the reaction cell increases, and the movement of the magnetic particles becomes slower. The clot waveform is analyzed by determining a difference between the waveform value (scattered light) after a given period of time from the point when an electromagnet is turned on and the waveform value (scattered light) after a given period of time from the point when electromagnet is turned off. Differences in the waveform values are plotted with the elapse of time, and a point at which the waveform value is lowered by a given percentage from the maximal value (also referred to as “peak TOP”) is designated as the end point. The period from the peak TOP to the end point is measured to obtain the measured value (seconds). The term “clotting time” used herein refers to the period from the peak TOP to the end point. […]

## O=C(NC[C@H]1CN(c2ccc(N3CCOCC3=O)cc2)C(=O)O1)c1ccc(Cl)s1 [rivaroxaban]
  Slope of clot waveform, Mean: −805.9
